Values of other authors in patent US6559183B1, “Nano-emulsion of 5-aminolevulinic acid” (ASAT AG Applied Science & Technology, priority 1998, dated 2003).

Conditions: high concentrations required for clinical application, neutral to basic pH range, 25 h

SMILES: NCC(=O)CCC(=O)O [aminolevulinic acid, 5-aminolevulinic acid]
- stability in aqueous solutions: unstable
